Patent US20240218022A1, “ANTI-VISTA MACROCYCLIC PEPTIDES AND COMPOSITIONS” (BRISTOL-MYERS SQUIBB COMPANY, priority 2022, published 2024)
Read-outs that look alike come from different tables or passages of the source. Values belong to the compound of their own block, whether it stands above or below them. Starred links: 1 amine or outer side, 2 acyl side, 3 side chain; linkers in the order of their positions; H or OH if unused. Positions of bridges follow the written chain, without caps; N, C: chain ends. Non-standard residues stand in square brackets, D forms with d. Residues, ends and D or L forms follow the SMILES beside them. Phe(3-CF3) = N[C@@H](Cc1cccc(C(F)(F)F)c1)C(=O)O; Phe(4-COOH) = N[C@@H](Cc1ccc(C(=O)O)cc1)C(=O)O; Phe(3-Me) = Cc1cccc(C[C@H](N)C(=O)O)c1; Phe(4-Me) = Cc1ccc(C[C@H](N)C(=O)O)cc1; γGlu = O=C(O)[C@H](CCC(=O)[*:2])N[*:1]; 2Nal = N[C@@H](Cc1ccc2ccccc2c1)C(=O)O; βAsp = O=C(O)[C@H](CC(=O)[*:2])N[*:1]; Cha = N[C@@H](CC1CCCCC1)C(=O)O; Gly(cPr) = N[C@H](C(=O)O)C1CC1; Ahp(2) = CCCCC[C@H](N)C(=O)O; NMeNle = CCCC[C@H](NC)C(=O)O; Tle = CC(C)(C)[C@H](N)C(=O)O; NHexGly = CCCCCCNCC(=O)O; Nle = CCCC[C@H](N)C(=O)O; Orn = NCCC[C@H](N)C(=O)O; Aun = NCCCCCCCCCCC(=O)O; Dab = NCC[C@H](N)C(=O)O; Dap = NC[C@H](N)C(=O)O; AEEA = NCCOCCOCC(=O)O

Target: T1, mouse VISTA (mVISTA) (Mus musculus, UniProt Q9D659)
T1 construct: expressed in transfected cells; host or cells: Human embryonic kidney 293T cells
T1 sequence (Q9D659 33-308): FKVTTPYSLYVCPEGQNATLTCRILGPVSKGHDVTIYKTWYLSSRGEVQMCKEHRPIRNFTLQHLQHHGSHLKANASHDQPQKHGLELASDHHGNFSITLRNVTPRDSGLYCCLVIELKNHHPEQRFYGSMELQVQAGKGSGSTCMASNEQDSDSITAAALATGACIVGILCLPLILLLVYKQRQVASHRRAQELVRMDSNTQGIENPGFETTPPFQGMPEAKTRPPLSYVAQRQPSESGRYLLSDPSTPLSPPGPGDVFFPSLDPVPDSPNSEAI
Experiment: Cell-Based Binding High-Content Assay For mVISTA (HC CBA mVISTA)
In short: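 Competition of compound with a biotinylated peptide (final 2 nM, 30 min at RT) for binding to mVISTA on 293T cells, run under no-wash or wash (1 h compound preincubation then removal) formats. Readout by Alexa 647–streptavidin imaging on a high-content platform; four-parameter logistic fit gave IC50.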

[1] = 293T cells expressing mouse VISTA, competition with biotinylated peptide (2 nM), read-out: HC CBA mVISTA IC50
[2] = cell-based binding high-content assay, mVISTA, read-out: HC CBA miPr ISTA IC50
[3] = cell-based binding high-content assay, read-out: HC CBA mVISTA IC50

IC50 [1]: 58 nM
SMILES: CCCCCCN1CC(=O)N[C@@H](Cc2ccc(O)cc2)C(=O)N[C@@H](CCCCC)C(=O)N[C@@H](CC(N)=O)C(=O)N[C@@H](CCCNC(=N)N)C(=O)N[C@@H](CC(C)C)C(=O)N[C@@H](CCCCC)C(=O)N2CCC[C@H]2C(=O)N[C@@H](C(C)C)C(=O)N[C@@H](CO)C(=O)N[C@H](C(=O)NCC(=O)N[C@@H](CCC(=O)O)C(=O)NCCCCCCCCCCC(=O)O)CSCC(=O)N[C@@H](Cc2ccccc2)C(=O)N[C@@H](Cc2ccc(O)cc2)C(=O)N[C@@H](CC(=O)O)C1=O [Example 2341] ({CH2CO}-FYD[NHexGly]Y[Ahp(2)]NRL[Ahp(2)]PVSCGE[Aun]-OH; thioether N-14)

IC50 [2]: 39.4 nM
SMILES: CCCCCCN1CC(=O)N[C@@H](Cc2ccc(O)cc2)C(=O)N[C@@H](CC2CCCCC2)C(=O)N[C@@H](CC(N)=O)C(=O)N[C@@H](CCCNC(=N)N)C(=O)N(C)[C@@H](CCCC)C(=O)N[C@@H](CCCCC)C(=O)N2CCC[C@H]2C(=O)N[C@@H](C(C)(C)C)C(=O)N[C@@H](CO)C(=O)N[C@H](C(=O)N[C@@H](CC(=O)NCCOCCOCC(=O)N[C@@H](CC(=O)O)C(=O)NCCOCCOCC(=O)NCCCCCCCCCCC(=O)O)C(=O)O)CSCC(=O)N[C@@H](Cc2ccccc2)C(=O)N[C@@H](Cc2ccc(O)cc2)C(=O)N[C@@H](CC(=O)O)C1=O [compound 2053] ({CH2CO}-FYD[NHexGly]Y[Cha]NR[NMeNle][Ahp(2)]P[Tle]SC[βAsp][AEEA]D[AEEA][Aun]-OH; thioether N-14)

IC50 [2]: 24.1 nM
SMILES: CCCCCCN1CC(=O)N[C@@H](Cc2ccc(O)cc2)C(=O)N[C@@H](CC(C)C)C(=O)N[C@@H](CC(N)=O)C(=O)N[C@@H](CCCNC(=N)N)C(=O)N(C)[C@@H](CCCC)C(=O)N[C@@H](CCCCC)C(=O)N2CCC[C@H]2C(=O)N[C@@H](C(C)(C)C)C(=O)N[C@@H](CO)C(=O)N[C@H](C(=O)N[C@@H](CC(=O)NCCOCCOCC(=O)N[C@@H](CC(=O)O)C(=O)NCCOCCOCC(=O)NCCCCCCCCCCC(=O)O)C(=O)O)CSCC(=O)N[C@@H](Cc2ccc(C(=O)O)cc2)C(=O)N[C@@H](Cc2ccc(O)cc2)C(=O)N[C@@H](CC(=O)O)C1=O [compound 2050] ({CH2CO}-[Phe(4-COOH)]YD[NHexGly]YLNR[NMeNle][Ahp(2)]P[Tle]SC[βAsp][AEEA]D[AEEA][Aun]-OH; thioether N-14)

IC50 [3]: 46.8 nM
SMILES: CCCCCCN1CC(=O)N[C@@H](Cc2ccc(O)cc2)C(=O)N[C@@H](CCCC)C(=O)N[C@@H](CC(N)=O)C(=O)N[C@@H](CCCNC(=N)N)C(=O)N(C)[C@@H](CCCC)C(=O)N[C@@H](CCCCC)C(=O)N2CCC[C@H]2C(=O)N[C@@H](C(C)(C)C)C(=O)N[C@@H](CO)C(=O)N[C@H](C(=O)NCC(=O)NCCOCCOCC(=O)N[C@@H](CCC(=O)NCCOCCOCC(=O)NCCCCCCCCCCC(=O)O)C(=O)O)CSCC(=O)N[C@@H](Cc2ccc3ccccc3c2)C(=O)N[C@@H](Cc2ccc(O)cc2)C(=O)N[C@@H](CC(=O)O)C1=O [compound 2333] ({CH2CO}-[2Nal]YD[NHexGly]Y[Nle]NR[NMeNle][Ahp(2)]P[Tle]SCG[AEEA][γGlu][AEEA][Aun]-OH; thioether N-14)

IC50 [3]: 33.7 nM
SMILES: CCCCCCN1CC(=O)N[C@@H](Cc2ccc(O)cc2)C(=O)N[C@@H](CCCC)C(=O)N[C@@H](CC(N)=O)C(=O)N[C@@H](CCCNC(=N)N)C(=O)N(C)[C@@H](CCCC)C(=O)N[C@@H](CCCCC)C(=O)N2CCC[C@H]2C(=O)N[C@@H](C(C)(C)C)C(=O)N[C@@H](CO)C(=O)N[C@H](C(=O)NCC(=O)N[C@@H](CC(=O)NCCOCCOCC(=O)NCCCCCCCCCCC(=O)O)C(=O)O)CSCC(=O)N[C@@H](Cc2ccccc2)C(=O)N[C@@H](Cc2cccc(C)c2)C(=O)N[C@@H](CC(=O)O)C1=O [Example 2327] ({CH2CO}-F[Phe(3-Me)]D[NHexGly]Y[Nle]NR[NMeNle][Ahp(2)]P[Tle]SCG[βAsp][AEEA][Aun]-OH; thioether N-14)

IC50 [2]: 38.9 nM
SMILES: CCCCCCN1CC(=O)N[C@@H](Cc2ccc(O)cc2)C(=O)N[C@@H](CC(C)C)C(=O)N[C@@H](CC(N)=O)C(=O)N[C@@H](CCCNC(=N)N)C(=O)N[C@@H](CC(C)C)C(=O)N[C@@H](CCCCC)C(=O)N2CCC[C@H]2C(=O)N[C@@H](C(C)C)C(=O)N[C@@H](C(C)C)C(=O)N[C@H](C(=O)NCC(=O)NCCOCCOCC(=O)N[C@@H](CC(=O)O)C(=O)NCCOCCOCC(=O)NCCCCCCCCCCC(=O)O)CSCC(=O)N[C@@H](Cc2ccccc2)C(=O)N[C@@H](Cc2cccc(C)c2)C(=O)N[C@@H](CC(=O)O)C1=O [compound 2009] ({CH2CO}-F[Phe(3-Me)]D[NHexGly]YLNRL[Ahp(2)]PVVCG[AEEA]D[AEEA][Aun]-OH; thioether N-14)

Further lines, the compound ahead of its results:

SMILES: CCCCCCN1CC(=O)N[C@@H](Cc2ccc(O)cc2)C(=O)N[C@@H](CCCC)C(=O)N[C@@H](CC(N)=O)C(=O)N[C@@H](CCCNC(=N)N)C(=O)N(C)[C@@H](CCCC)C(=O)N[C@@H](CCCCC)C(=O)N2CCC[C@H]2C(=O)N[C@@H](C(C)C)C(=O)N[C@@H](CC(=O)O)C(=O)N[C@H](C(=O)N[C@@H](CCN)C(=O)N[C@@H](CC(N)=O)C(=O)O)CSCC(=O)N[C@@H](Cc2ccccc2)C(=O)N[C@@H](Cc2c[nH]c3ccccc23)C(=O)N[C@@H](CC(=O)O)C1=O [compound 1131] ({CH2CO}-FWD[NHexGly]Y[Nle]NR[NMeNle][Ahp(2)]PVDC[Dab]N-OH; thioether N-14)
IC50 (read-out: HC CBA mVISTA IC50): 23.1 nM

SMILES: CCCCCCN1CC(=O)N[C@@H](Cc2ccc(O)cc2)C(=O)N[C@@H](CCCC)C(=O)NCC(=O)N[C@@H](CCCNC(=N)N)C(=O)N[C@@H](CC(C)C)C(=O)N[C@@H](CCCCC)C(=O)N2CCC[C@H]2C(=O)N[C@@H](C(C)C)C(=O)N[C@@H](CCC(=O)O)C(=O)N[C@H](C(=O)NCC(=O)O)CSCC(=O)N[C@@H](Cc2ccccc2)C(=O)N[C@@H](Cc2ccc(O)cc2)C(=O)N[C@@H](CC(=O)O)C1=O [Example 1022] ({CH2CO}-FYD[NHexGly]Y[Nle]GRL[Ahp(2)]PVECG-OH; thioether N-14)
IC50 [1]: 41.5 nM

SMILES: CCCCCCN1CC(=O)N[C@@H](Cc2ccc(O)cc2)C(=O)N[C@@H](C(C)C)C(=O)NCC(=O)N[C@@H](CCCNC(=N)N)C(=O)N[C@@H](CC(C)C)C(=O)N[C@@H](CCCCC)C(=O)N2CCC[C@H]2C(=O)N[C@@H](C(C)C)C(=O)N[C@@H](CC(=O)O)C(=O)N[C@H](C(=O)N[C@@H](CO)C(=O)N[C@@H](CN)C(=O)N[C@@H](CC(N)=O)C(=O)O)CSCC(=O)N[C@@H](Cc2ccc3ccccc3c2)C(=O)N[C@@H](Cc2ccc(O)cc2)C(=O)N[C@@H](CC(=O)O)C1=O [Example 1161] ({CH2CO}-[2Nal]YD[NHexGly]YVGRL[Ahp(2)]PVDCS[Dap]N-OH; thioether N-14)
IC50 [1]: 22.7 nM

SMILES: CCCCCCN1CC(=O)N[C@@H](Cc2ccc(O)cc2)C(=O)N[C@@H](CC(C)C)C(=O)N[C@@H](CC(N)=O)C(=O)N[C@@H](CCCNC(=N)N)C(=O)N[C@@H](CC(C)C)C(=O)N[C@@H](CCCCC)C(=O)N2CCC[C@H]2C(=O)N[C@@H](C(C)C)C(=O)N[C@@H](C(C)C)C(=O)N[C@H](C(=O)NCC(=O)O)CSCC(=O)N[C@@H](Cc2ccccc2)C(=O)N[C@@H](Cc2cccc(C(F)(F)F)c2)C(=O)N[C@@H](CC(=O)O)C1=O [compound 1333] ({CH2CO}-F[Phe(3-CF3)]D[NHexGly]YLNRL[Ahp(2)]PVVCG-OH; thioether N-14)
IC50 (read-out: HC CBA mVISTA IC50): 27.6 nM

SMILES: CCCCCCN1CC(=O)N[C@@H](Cc2ccc(O)cc2)C(=O)N[C@@H](CCCC)C(=O)N[C@@H](CC(N)=O)C(=O)N[C@@H](CCCNC(=N)N)C(=O)N[C@@H](CC(C)C)C(=O)N[C@@H](CCCCC)C(=O)N2CCC[C@H]2C(=O)N[C@@H](C(C)C)C(=O)N[C@@H](C2CC2)C(=O)N[C@H](C(=O)NCC(=O)O)CSCC(=O)N[C@@H](Cc2ccc3ccccc3c2)C(=O)N[C@@H](Cc2c[nH]c3ccccc23)C(=O)N[C@@H](CC(=O)O)C1=O [compound 1232] ({CH2CO}-[2Nal]WD[NHexGly]Y[Nle]NRL[Ahp(2)]PV[Gly(cPr)]CG-OH; thioether N-14)
IC50 (cell-based binding high-content assay, mVISTA, the 15th table, read-out: HC CBA mVISTA IC50): 36 nM

SMILES: CCCCCCN1CC(=O)N[C@@H](Cc2ccc(O)cc2)C(=O)N[C@@H](CCCC)C(=O)N[C@@H](CC(=O)O)C(=O)N[C@@H](CCCN)C(=O)N[C@@H](CC(C)C)C(=O)N[C@@H](CCCCC)C(=O)N2CCC[C@H]2C(=O)N[C@@H](C(C)C)C(=O)N[C@@H](CO)C(=O)N[C@H](C(=O)NCC(=O)O)CSCC(=O)N[C@@H](Cc2ccccc2)C(=O)N[C@@H](Cc2c[nH]c3ccccc23)C(=O)N[C@@H](CC(=O)O)C1=O [Example 1355] ({CH2CO}-FWD[NHexGly]Y[Nle]D[Orn]L[Ahp(2)]PVSCG-OH; thioether N-14)
IC50 (read-out: HC CBA mVISTA IC50): 33.8 nM

SMILES: CCCCCCN1CC(=O)N[C@@H](Cc2ccc(O)cc2)C(=O)N[C@@H](CC(C)C)C(=O)N[C@@H](CC(N)=O)C(=O)N[C@@H](CCCNC(=N)N)C(=O)N(C)[C@@H](CCCC)C(=O)N[C@@H](CCCCC)C(=O)N2CCC[C@H]2C(=O)N[C@@H](C(C)(C)C)C(=O)N[C@@H](CO)C(=O)N[C@H](C(=O)NCC(N)=O)CSCC(=O)N[C@@H](Cc2ccccc2)C(=O)N[C@@H](Cc2ccc(C)cc2)C(=O)N[C@@H](CC(=O)O)C1=O [compound 1349] ({CH2CO}-F[Phe(4-Me)]D[NHexGly]YLNR[NMeNle][Ahp(2)]P[Tle]SCG-NH2; thioether N-14)
IC50 (read-out: HC CBA mVISTA IC50): 43.6 nM
